Measured values: patent publication US20160115446A1, “Technologies, Methods, and Products of Small Molecule Directed Tissue and Organ Regeneration from Human Pluripotent Stem Cells” (SAN DIEGO REGENERATIVE MEDICINE INSTITUTE, priority 2014, published 2016)

Tested on: undifferentiated hESCs
Assay: Cardiac induction of undifferentiated hESCs in defined culture by NAM (marker immunostaining, beating cardiomyocytes)
Type: cell-based, human
Text: (b) Cardiac fate switch direct of the pluripotent state of hESCs induced by nicotinamide. NAM-induced Oct-4-negative cells began to express the cardiac specific transcription factor (Csx) Nkx2.5 (green) and alpha-actinin (red), consistent with early cardiac differentiation. […] All cells are indicated by DAPI staining of their nuclei (blue). Insets at the top better visualize individual cells at higher-magnification.
(Stage 1—Human Cardiomesodermal Cells) (FIGS. 1; 2a, b). Increased intensity of Nkx2.5 was usually observed in areas of the colonies where cells began to pile up (FIG. 2b). These differentiating hESCs then formed cardioblasts that uniformly expressed Nkx2.5 in suspension (Stage 2—Human Cardiac Precursor Cells) (FIGS. 1; 3a). […] (FIGS. 1, 3b). Cells within the beating cardiospheres expressed markers characteristic of cardiomyocytes (FIG. 3b). The cardiomyocytes can retain their strong contractility for over 3 months. Electrical profiles of the cardiomyocytes confirmed their contractions to be strong rhythmic impulses reminiscent of the p-QRS-T-complexes seen from body surface electrodes in clinical electrocardiograms (FIG. 3c). Cardiac specific transcription factor (Csx) Nkx2.5 is an evolutionally conserved homeobox transcription factor indispensable for normal cardiac development. The onset and pattern of early Nkx2.5 expression roughly coincide with the timing and area of cardiac specification, and Nkx2.5 gene continues to be expressed through development in the heart. Expression of Nkx2.5 is the earliest marker for heart precursor cells in all vertebrates so far examined and is essential for proper cardiac septation and formation/maturation of electrical conduction system.

NC(=O)c1cccnc1 [NAM, nicotinamide]
expression of cardiac-specific transcription factor Csx/Nkx2.5 (NAM 10 mM, defined culture): began expressing the earliest marker for heart precursor, Csx/Nkx2.5
expression of pluripotence-associated markers (e.g., Oct-4) (NAM 10 mM, defined culture, all the cells within the colony): down-regulated the expression of pluripotence-associated markers
appearance of beating cardiomyocytes (cardioblasts attached, further NAM treatment, after withdrawal of NAM, vs untreated control): drastic increase in efficiency
